Measurements published in publication PMC4423559 (Angewandte Chemie (International ed. in English), 2015).
pKd: −log10 of the molar value.

Target: T1, GTP/GDP carrier (GGC) from yeast mitochondria (Saccharomyces cerevisiae, UniProt P38988)
T1 sequence (P38988 1-300): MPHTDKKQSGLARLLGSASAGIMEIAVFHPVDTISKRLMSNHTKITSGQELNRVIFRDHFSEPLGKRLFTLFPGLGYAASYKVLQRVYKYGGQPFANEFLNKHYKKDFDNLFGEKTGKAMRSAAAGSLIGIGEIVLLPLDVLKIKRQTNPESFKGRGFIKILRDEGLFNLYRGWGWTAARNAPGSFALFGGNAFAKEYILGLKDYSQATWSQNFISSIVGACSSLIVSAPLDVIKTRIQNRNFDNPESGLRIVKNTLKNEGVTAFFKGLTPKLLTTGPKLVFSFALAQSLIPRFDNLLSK
Assay: NMR chemical shift perturbation titration, 3D TROSY HNCO
Type: binding

| pKd | Structure (SMILES) |
| --- | --- |
| 2.18 | Nc1nc2c(ncn2[C@@H]2O[C@H](COP(=O)(O)OP(=O)(O)OP(=O)(O)O)[C@@H](O)[C@H]2O)c(=O)[nH]1 [GTP] |
| 1.64 | Nc1nc2c(ncn2[C@@H]2O[C@H](COP(=O)(O)OP(=O)(O)O)[C@@H](O)[C@H]2O)c(=O)[nH]1 [GDP] |
